Measured values: patent publication EP0220873B1, “Fused bicyclic imides with psychotropic activity” (priority 1985, dated 1987)
Counter-ions that a name gives are not always drawn. Like-named read-outs stand apart in the source and are kept apart here. Marks after values point to notes of the source that are not given here.

Tests used:
[1] = system: avoidance responding; assay: conditioned avoidance (discrete trial) test; format: in vivo, Male CD rats; details: Rattus norvegicus, po; footnote 1 = AB50 value; read-out: Active at mg/kg (AB50 value)
Protocol: The antipsychotic activity of the compounds of the invention is assessed via the conditioned avoidance (discrete trial) test. This test has excellent clinical correlation for antipsychotic activity.
The test is carried out as follows: Male CD rats (Charles River) maintained at approximately 400-450 gm body weight are used. Rats trained previously are placed in plexiglass experimental chambers equipped with a response lever, house light, and sonalert. A steel grid floor is wired for presentation of electric shock. Each trial consists of a fifteen-second warning tone (conditioned stimulus), continuing for an additional fifteen seconds accompanied by electric shock, (unconditioned stimulus). The rat can terminate a trial at any point by depression of the response lever. As response during the initial fifteen-second warning tone ends the trial before shock delivery and is considered avoidance response, while a response occurring during shock delivery is an escape response. Trials are presented on a variable interval schedule of two minutes. The session consists of sixty trials. Animals are run two to three times weekly with control sessions always preceding a drug run, and with at least one day intervening, compounds are administered i.p. or p.o. at appropriate pre-treatment times to a minimum of five to six rats at each dose level over a range of doses.
(§1) Response counts are summed over all subjects at a given dose. […] This number is expressed as a percentage of the total trials. Control performance is arbitrarily assigned a value of 100% for avoidance and the dose calculated to produce a 50% block in avoidance responding (AB₅₀) is obtained from a dose-effect regression line fitted by the method of least squares. Potential antipsychotic compounds suppress avoidance responding and increase escape responding.

[2] = system: avoidance responding; assay: conditioned avoidance (shelf-jump response) test; format: in vivo, Male CD rats; details: i.p., active dose
Protocol: Another test designed to determine the potential antipsychotic activity of the compounds of the invention is the conditioned avoidance (shelf-jump response) test.
This test is carried out as follows: Male CD rats (Charles River) maintained at approximately 400-450 gm body weight are used. Previously trained rats are placed in plexiglass experimental chambers divided into two sections; a main chamber (10 1/2" x 6 3/4" x 11 7/8" high) and an elevated chamber or shelf (5 7/8" x 6 7/8" x 5 3/4"). A moveable wall, controlled by a motor, determines whether the rat has access to the shelf at any time during the experiment. The experimental chamber also contains a house light and sonalert. A steel grid floor in the main chamber is wired for presentation of electric shock. Each trial consists of a fifteen-second warning tone (conditioned stimulus), continuing for an additional fifteen seconds accompanied by electric shock, (unconditioned stimulus). A response (jumping onto the exposed shelf of the upper chamber) occurring during the initial fifteen-second warning tone is considered an avoidance response, while a response occurring during shock delivery is considered an escape response. Trials are presented on a fixed interval schedule of one minute. The session consists of thirty-six trials. Animals are run twice weekly with control sessions always preceding a drug run, and with at least one day intervening. Compounds are administered i.p. or p.o. at appropriate pre-treatment times to a minimum of five rats at each dose level over a range of doses.
The following experimental parameters are recorded by computer: (1) the number of avoidance responses, (2) the number of escape responses, and (3) the number of trials in which no response occurred.
as §1

[3] = molecular target: T1, limbic D-2 dopamine receptor (Rattus norvegicus, UniProt P61169); assay: biochemical; format: binding, rats; details: for Ki: Table 1, 0.3 nM 3H-spiroperidol, rat limbic brain tissue, read-out: Limbic D-2 Binding (KinM); for inhibition at 1 µM: read-out: Limbic D-2 Binding, % inhibition at 1 µM
T1 construct: Limbic brain tissue (nucleus accumbens, septal area, olfactory tubercle) is dissected; from tissue; host or cells: rat limbic brain tissue (nucleus accumbens, septal area, olfactory tubercle) homogenate

[4] = molecular target: T2, 5-HT-1A serotonin receptor (Rattus norvegicus, UniProt P19327); assay: ex vivo inhibition of 5-HT-1A serotonin receptor binding (3H-8-OH-DPAT, hippocampal membranes); set-up: species or system rats
T2 construct: Hippocampal tissue is dissected and homogenized on ice; from tissue; host or cells: rat hippocampal membrane homogenate
T2 sequence (P19327 1-422): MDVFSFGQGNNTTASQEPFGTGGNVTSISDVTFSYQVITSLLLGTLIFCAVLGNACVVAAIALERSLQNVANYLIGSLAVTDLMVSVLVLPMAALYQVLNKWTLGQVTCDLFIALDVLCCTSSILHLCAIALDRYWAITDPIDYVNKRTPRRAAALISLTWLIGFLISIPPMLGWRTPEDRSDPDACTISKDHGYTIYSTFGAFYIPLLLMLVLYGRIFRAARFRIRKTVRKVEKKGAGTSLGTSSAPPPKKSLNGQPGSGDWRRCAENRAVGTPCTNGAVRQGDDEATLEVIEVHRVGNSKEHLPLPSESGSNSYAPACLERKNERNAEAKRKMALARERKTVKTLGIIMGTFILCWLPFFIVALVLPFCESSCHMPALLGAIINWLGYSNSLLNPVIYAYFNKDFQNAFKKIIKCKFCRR
Protocol: The assay is carried out as follows: Several groups of rats (4 - 6 rats/group) are injected with test compound or the appropriate vehicle. Thirty minutes later, unless otherwise noted, rats are decapitated and their brains removed. Various brain regions are dissected and rapidly frozen and maintained at -70°C until used.
Hippocampal tissue is dissected and homogenized on ice in 40 vols of buffer (50 mM Tris HCl, pH = 7.7) using a Polytron homogenizer at setting 5 for 3 x 15 sec bursts. The homogenate is then centrifuged at 20,000 rpm (RC5-B; 50,000 g) and the supernatant discarded. The pellet is resuspended in 40 vols of the same buffer and incubated at 37°C for 10 minutes to aid in the removal of endogenous serotonin. The homogenate is then centrifuged (as above) and the supernatant discarded. The pellet is then resuspended in 100 vols of buffer B (50 mM Tris HCl, pH = 7.7 containing 0.1% ascorbate, 10 µM pargyline and 4 mM CaCl₂) and sonicated. An aliquot is taken for protein determination by the Lowry method and the remainder stored frozen at -70°C until used.
The homogenate (50 µl; 0.4-0.6 mg protein/sample) is incubated with 100 µl (1.5-1.8 nM) ³H-8-hydroxy-2-(di-n-propylamino)tetraline in a final volume of 2 ml of buffer for 10 minutes at 37°C. At the end of the incubation, 3 ml of cold buffer A are added to each tube, and the contents rapidly filtered through Whatman GF/B glass filters. The filters are then rapidly washed 2 times with 3 ml of the same buffer, placed in scintillation vials, and shaken for 15 minutes with 10 ml of Hydrofluor (National Diagnostics)scintillation cocktail. The vials are then counted in a Packard 460 CD scintillation counter.
Specific binding is calculated for each of the treatment protocols and is defined as total binding less binding in the presence of excess unlabeled serotonin (1 µM). Specific binding obtained in vehicle-treated rats is compared to that obtained in animals receiving a single or various doses of test compound and expressed as percent of control. […] Linear regression analysis then yields a straight line with 95% confidence limits from which an IC₅₀ can be inversely predicted.

[5] = Table 4, 3H-8-OH-DPAT, rat hippocampal tissue, read-out: Inhibition Constant (Ki nm)

T1 sequence (P61169 whole entry): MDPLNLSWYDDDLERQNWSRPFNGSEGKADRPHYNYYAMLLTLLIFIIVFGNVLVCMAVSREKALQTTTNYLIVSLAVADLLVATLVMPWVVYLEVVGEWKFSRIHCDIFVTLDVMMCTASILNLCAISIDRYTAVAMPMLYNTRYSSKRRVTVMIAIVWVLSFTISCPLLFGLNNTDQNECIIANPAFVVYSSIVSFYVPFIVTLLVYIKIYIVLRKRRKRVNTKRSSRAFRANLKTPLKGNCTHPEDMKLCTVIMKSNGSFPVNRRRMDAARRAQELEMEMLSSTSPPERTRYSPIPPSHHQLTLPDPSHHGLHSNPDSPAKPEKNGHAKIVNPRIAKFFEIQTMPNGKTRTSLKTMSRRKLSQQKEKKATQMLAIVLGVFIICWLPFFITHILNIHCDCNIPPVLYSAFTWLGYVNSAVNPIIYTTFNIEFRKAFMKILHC

SMILES | Ki [3] [µM] | Ki [4, 5] [µM] | inhibition at 1 µM [3] [%] | inhibition at 1 µM [4] [%] | ED50 [1] [mg/kg] | Active at mg/kg [2] | Ki [4] [µM]
O=C1C2C3C=CC(C4CC34)C2C(=O)N1CCCCN1CCN(c2cncc(Cl)n2)CC1 (centres unmarked) [Example 1, 2-[4-[4-(6-Chloro-2-pyrazinyl)-1-piperazinyl]butyl]hexahydro-4,6-ethenocycloprop[f]isoindole-1,3(2H,3aH)-dione, dihydrochloride, sesquihydrate] | 0.69 | 0.162 | – | – | 40 | 40 (i.p.)* mg/kg | –
O=C1C2C3C=CC(CCCC3)C2C(=O)N1CCCCN1CCN(c2cncc(Cl)n2)CC1 (centres unmarked) [Example 8, 2-[4-[4-(6-Chloro-2-pyrazinyl)-1-piperazinyl]butyl]octahydro-4,9-etheno-1H-cycloocta[c]pyrrole-1,3(2H)-dione, dihydrochloride, sesquihydrate] | 0.345 | 0.122 | – | – | – | 40 (i.p.) mg/kg | –
O=C1C2C3CCC(C4CC43)C2C(=O)N1CCCCN1CCN(c2ncccn2)CC1 (centres unmarked) [Example 7, 2-[4-[4-(2-Pyrimidinyl)-1-piperazinyl]butyl]octahydro-4,6-ethanocycloprop[f]isoindole-1,3-(2H, 3aH)-dione, dihydrochloride, dihydrate] | 0.14 | 0.0139 | – | – | – | 40 (i.p.) mg/kg | –
O=C1C2C3C=CC(C4C=CC43)C2C(=O)N1CCCCN1CCN(c2ncccn2)CC1 (centres unmarked) [Example 3, 3a,4,4a,6a,7,7a-Hexahydro-2-[4-[4-(2-pyrimidinyl)-1-piperazinyl]butyl]-4,7-etheno-1H-cyclobut[f]isoindole-1,3(2H)-dione, dihydrochloride, sesquihydrate] | 0.345 | 0.017 | – | – | 13.4 | 40 (i.p.) mg/kg | –
O=C1C2C3C=CC(C4CCC34)C2C(=O)N1CCCCN1CCN(c2ncccn2)CC1 (centres unmarked) [Example 16, 2-[4-[4-(2-Pyrimidinyl)-1-piperazinyl]butyl]-octahydro-4,7-etheno-1H-cyclobut[f]isoindole-1,3-(2H)-dione, dihydrochloride, hydrate] | 0.085 | – | – | – | 47.4 | 40 (i.p.) mg/kg | 0.0011

The next lines start with results.

Ki [3] [µM] | Ki [4, 5] [µM] | inhibition at 1 µM [3] [%] | inhibition at 1 µM [4] [%] | SMILES | ED50 [1] [mg/kg] | Active at mg/kg [2] | Ki [4] [µM]
– | – | 38 | 68 | O=C1C2C3C=CC(C4CC34)C2C(=O)N1CCCCN1CCN(c2cnccn2)CC1 (centres unmarked) [Example 24, 4,4a,5,5a,6,6a-Hexahydro-2-[4-[4-(2-pyrazinyl)-1-piperazinyl]butyl]-4,6-ethenocycleprop[f]isoindole-1,3-(2H,3aH)-dione, dihydrochloride, hydrate] | 49.6 | 40 (i.p.) mg/kg | –
– | – | 48 | – | O=C1C2C3C=CC(C3)C2C(=O)N1CCCCN1CCN(c2nccnc2Cl)CC1 (centres unmarked) [Example 18, 2-[4-[4-(3-Chloro-2-pyrazinyl)-1-piperazinyl]butyl]-3a,4,7,7a-tetrahydro-4,7-methano-1H-isoindole-1,3-(2H)-dione, hydrochloride, 2.5 hydrate] | 40 | 40 (i.p.) mg/kg | –
– | 0.041 | 41 | – | O=C1C2C3C=CC(C4CCC34)C2C(=O)N1CCCCN1CCN(c2cnccn2)CC1 (centres unmarked) [Example 27, 3a,4,4a,5,6,6a,7,7a-Octahydro-2-[4-[4-(2-pyrazinyl)-1-piperazinyl]butyl]-4,7-etheno-1H-cyclobut[f]isoindole-1,3(2H)-dione, dihydrochloride, hemihydrate] | – | 40 (i.p.) mg/kg | –
– | – | 13 | 46 | O=C1C2C3C=CC(C4C=CC43)C2C(=O)N1CCCCN1CCN(c2cnccn2)CC1 (centres unmarked) [Example 23, 3a,4,4a,6a,7,7a-Hexahydro-2-[4-[4-(2-pyrazinyl)-1-piperazinyl]butyl]-4,7-etheno-1H-cyclobut[f]isoindole-1,3-(2H)-dione, fumarate(1:1)] | – | 40 (i.p.) mg/kg | –
– | 0.012 | 53 | – | O=C1C2C3C=CC(CCC3)C2C(=O)N1CCCCN1CCN(c2ncccn2)CC1 (centres unmarked) [Example 21, 4,5,6,7,8,8a-Hexahydro-2-[4-[4-(2-pyrimidinyl)-1-piperazinyl]butyl]-4,8-ethenocyclohepta[c]pyrrole-1,3(2H,3aH)-dione, dihydrochloride, hemihydrate] | – | 40 (i.p.) mg/kg | –
– | – | 1 | 74 | O=C1C2C3C=CC(C3)C2C(=O)N1CCCCN1CCN(c2cncc(Cl)n2)CC1 (centres unmarked) [Example 13, 3a,4,7,7a,-Tetrahydro-2-[4-[4-(6-chloro-2-pyrazinyl)-1-piperazinyl]butyl]-4,7-methano-1H-isoindole-1,3(2H)-dione hydrochloride hydrate] | 39.7 | 40 (i.p.) mg/kg | –
